In patent US20070275944A1, “Antioxidants and methods of their use” (The Board of Trustees Operating Michigan State University, priority 2006, published 2007):

System: mouse brain, dopaminergic neurons
Assay: MRI imaging of mouse brain after injection of tracer
Assay type: in vivo
Conditions: mice, MRI images 48 hours after administration
Description: The central figure is a chimera directly comparing the left hemisphere of the control with the right hemisphere of the TP-TEMPO treated. In this central image the “Y” shaped region (1) is where the dopaminergic neurons are found.
With its dependence on the more biologically variable parameters of proton density, longitudinal relaxation time (T1), and transverse relaxation time (T2), variable image contrast can be achieved by using different pulse sequences and by changing the imaging parameters. Signal intensities on T1, T2, and proton density-weighted images relate to specific tissue characteristics. Moreover, with MRI's multi-planar capability, the imaging plane can be optimized for the anatomic area being studied, and the relationship of lesions to eloquent areas of the brain can be defined more accurately. Since T2-weighted images are most sensitive for detecting brain pathology, patients with suspected intracranial disease are typically screened using the T2-weighted regime. However, it has proven difficult to apply MRI to Parkinson's disease, as the dompaminergic neurons have the same MRI characteristics as the surrounding tissues, so that the Parkinson's lesions are invisible using conventional MRI and can only be detected using histology post-mortem. […]

Structure (SMILES): CN1CC=C(C2CC(C)(C)N(O)C(C)(C)C2)CC1 [TP-TEMPO, 2,2,6,6-tetramethyl-4-(1-methyl-1,2,3,6-tetrahydropyridin-4-yl)piperidin-1-oxyl]
- migration of probe to the dopaminergic neurons: preferentially migrated to the dopaminergic neurons
- partitioning of probe into the brain: partitioned preferentially into the brain
